Reference: patent US20230172848A1, “ORAL FILM FOR SAFE ADMINISTRATION OF API” (LABTEC GMBH, priority 2020, published 2023)
Read-outs that look alike come from different tables or passages of the source.

Tests used:
[1] = acceptor medium of buffer pH 7.0
Procedure: The dosage unit prepared from formulation F6 were tested for ex-vivo permeation on porcine buccal mucosa in vertical Franz-cells.

[2] = cited from earlier work
[3] = cited from earlier work; for required dose for induction of anesthesia: 1% solution i.v.
[4] = in vivo; cited from earlier work

CC(C)c1cccc(C(C)C)c1O [propofol, 2,6-diisopropylphenol]
concentration of saturated solution [1]: about 167.8 μg/ml | blood level required for the sedative effect ([2]; Dhir et al., 2016): 1.5 to 2.0 µg/mL | average blood concentration required for anesthetic effect ([2]; major surgeries): 4.05 ± 1.01 µg/mL | blood concentration sufficient for anesthetic effect ([2]; minor surgical procedures): 2.97 ± 1.07 µg/mL | required dose for induction of anesthesia ([3]; adult patients aged less than 55 years): 1.5-2.5 mg/kg body weight | required dose for induction of anesthesia ([3]; children over 8 years): about 2.5 mg/kg body weight | rate of administration that maintains the anesthetic effect ([3]; adults under the age of 55): 4-12 mg/kg body weight/h | rate of administration that maintains the anesthesia ([3]; children over the age of 1 month): 9-15 mg/kg body weight/h | oral bioavailability [4]: very low
